Consider four molecules from patent US20200093932A1, “TREATMENT OF CANCER” (BlueLink Pharmaceuticals, Inc., priority 2016, published 2020).

Format in all cases: in vivo
The test system of experiment [1] is B16.F10 mouse melanoma tumor model. As to the kind of experiment: Example 2: CRLX101 with INCB-024360, tumor growth inhibition and delay. Here is the method:
On Day 1, B16.F10 cells, passage 5, were suspended in DMEM (Dulbecco's Modified Eagle Medium) and implanted subcutaneously (SC) in mice. When the mean tumor volume reached 60 mm^3, the mice were randomized into study groups and given one of the following treatments: • a control vehicle (20% DMSO/7.5% propylene glycol/5% Tween 80/67.5% PBS) administered IP bid for 13 days, from Day 5 to Day 17, with a dose volume of 10 mL/kg • CRLX101 administered IV at 6 mg/kg q7dx2, i.e. on Day 5 and Day 12 at a dose volume of 10 mL/kg as monotherapy and in combination • INCB-024360 (lot #01, SelleckChem, Houston, Tex.) 10 mg/mL in 20% DMSO/[…]/5% Tween 80/67.5% PBS. The dose was 100 mg/kg administered PO twice every day with a dose volume of 10 mL/kg for 13 days, from Day 5 to […] post tumor implantation as a monotherapy and in combination with CRLX101
(§1) Tumor volumes were measured 3 times every week using the equation (width*width*length)/2, in mm^3. Tumor growth inhibition (TGI) was determined by comparing the mean tumor volume of the treated group with the mean tumor volume of the control group, as the decrease in tumor volume of the treated group as a percent of total tumor volume of the control group. The equation to calculate TGI is (1-(treated volume/control volume))*100.
(§2) Tumor growth delay (TGD) was determined as the number of days between when the control group reached the tumor volume endpoint and when the treated group reached the tumor volume endpoint.

For experiment [2] the test system is unchanged. As to the kind of experiment: Example 3: CRLX101 with Indoximod, tumor growth inhibition and delay. Here is the method:
On Day 1, B16.F10 cells, passage 2, were suspended in DMEM (Dulbecco's Modified Eagle Medium) and implanted subcutaneously (SC) in mice. When the mean tumor volume reached 69 mm^3, the mice were randomized into study groups and given one of the following treatments: • a control vehicle (drinking water with the sweetening agent Equal™ added (2 g/L)) was included in the study from Day 7 to Day 19 post tumor implantation. • CRLX101 administered IV at 6 mg/kg q7dx2, i.e. on Day 7 and Day 14 at a dose volume of 10 mL/kg as monotherapy and in combination. • Indoximod (lot # MKBQ8091V, Sigma-Aldrich) was administered in the drinking water at a concentration of 2 mg/mL from Day 7 to Day 19 post tumor implantation as a monotherapy and in combination with CRLX101. The water had Equal™ added (2 g/L).
Tumor volumes were measured 3 times every week using the equation (width*width*length)/2, in mm^3. The endpoint for tumor volume was 2000 mm^3. Tumor growth inhibition (TGI) was determined by comparing the mean tumor volume of the treated group with the mean tumor volume of the control group, as the decrease in tumor volume of the treated group as a percent of total tumor volume of the control group. […]
as §2

Experiment [3] shares this test system. As to the kind of experiment: Example 4: CRLX101 + NLG-919 analog versus Irinotecan + NLG-919 analog, tumor growth inhibition and delay. Conditions: for Inhibit tumor growth?: B16.F10 SC tumors in mice, CRLX101 6 mg/kg IV q7dx2 (Day 6, 13), NLG-919 analog 12.5 mg/kg IP bid Day 6-19, Irinotecan 100 mg/kg q7dx2 (Day 6, 13); for TGI vs. Control (%): same dosing, relative to vehicle control. The method, then: On Day 1, B16.F10 cells, passage 3, were suspended in DMEM (Dulbecco's Modified Eagle Medium) and implanted subcutaneously (SC) in mice. […] The dose was 100 mg/kg q7dx2, i.e., administered at a dose volume of 10 mL/kg on Day 6 and Day 13 post tumor implantation as a monotherapy and in combination.
as §1, §2

Experiment [4] has the same test system. As to the kind of experiment: Example 5: CRLX101 + NLG-919 analog versus anti-PD-1 antibody + NLG-919 analog, tumor growth inhibition and delay. Here is the method:
On Day 1, B16.F10 cells, passage 3, were suspended in DMEM (Dulbecco's Modified Eagle Medium) and implanted subcutaneously (SC) in mice.
Tumor volumes were measured 3 times every week using the equation (width*width*length)/2, in mm^3. Tumor growth inhibition (TGI) was determined by comparing the mean tumor volume of the treated group with the mean tumor volume of the control group, as the decrease in tumor volume of the treated group as a percent of total tumor volume of the control group. The equation to calculate TGI is (1−(treated volume/control volume))*100.
as §2

Experiment [5] shares this test system. In words: Example 1: CRLX101 with NLG-919 analog or INCB-024360 analog, tumor growth inhibition and delay. Here is the method: On Day 1, B16.F10 cells, passage 3, were suspended in DMEM (Dulbecco's Modified Eagle Medium) and implanted subcutaneously (SC) in mice. […] The dose was 100 mg/kg administered PO twice every day with a dose volume of 10 mL/kg for 14 days, from Day 7 to Day 20 post tumor implantation as a monotherapy and in combination with CRLX101
as §1, §2

Where [6] appears, read: same dosing, vs vehicle when the control group reached the tumor volume endpoint.

Molecules are shown by their SMILES.

`NS(=O)(=O)NCCNc1nonc1/C(=N/O)Nc1ccc(F)c(Br)c1` [INCB-024360]: the “Inhibit tumor growth?” value in experiment [1] (B16.F10 SC tumors in mice, CRLX101 6 mg/kg IV q7dx2 (Day 5, 12), INCB-024360 100 mg/kg PO bid Day 5-18) was “did not inhibit tumor growth and No”. Besides, the “TGD (Day)” value in experiment [1] (same dosing, days between control and treated group reaching the tumor volume endpoint) was “no TGD”. Moreover, the “TGI vs. Control (%)” value in experiment [1] (setting [6]) is reported as 20%.

For the molecule `Cn1cc(C[C@@H](N)C(=O)O)c2ccccc21` [Indoximod], the “Inhibit tumor growth?” value in experiment [2] (B16.F10 SC tumors in mice, CRLX101 6 mg/kg IV q7dx2 (Day 7, 14), Indoximod 2 mg/mL in drinking water Day 7-19) was “did not inhibit tumor growth and No”. Further, the “TGI vs. Control (%)” value in experiment [2] (same dosing, vs vehicle when the control group reached the tumor volume endpoint (2000 mm^3)) is given as −49%.

Regarding `CCc1c2c(nc3ccc(OC(=O)N4CCC(N5CCCCC5)CC4)cc13)-c1cc3c(c(=O)n1C2)COC(=O)[C@]3(O)CC` [Irinotecan], in experiment [3], the “Inhibit tumor growth?” value is “No” and the “TGI vs. Control (%)” value is reported as −12%.

For `OC(CC1c2ccccc2-c2cncn21)C1CCCCC1` (stereo not shown) [NLG-919 analog], the “Inhibit tumor growth?” value was “did not inhibit tumor growth and No” in experiment [3]; “did not inhibit tumor growth and No” in experiment [4] (B16.F10 SC tumors in mice, CRLX101 6 mg/kg IV q7dx2 (Day 6, 13), NLG-919 analog 12.5 mg/kg IP bid Day 6-19, anti-mouse PD-1 antibody 200 μg per mouse IP Day 6, 9, 13, 16); “No” in experiment [5] (B16.F10 SC tumors in mice, CRLX101 6 mg/kg IV q7dx2 (Day 7, 14), NLG-919 analog 12.5 mg/kg IP bid Day 7-20, INCB-024360 analog 100 mg/kg PO bid Day 7-20). For the same molecule, the “TGI vs. Control (%)” value in experiment [3] was 5%; in experiment [4] (setting [6]), 15%; in experiment [5] (same dosing, mean tumor volume vs vehicle when the control group reached the tumor volume endpoint), 23%.
